Consider one compound from patent US8771646B2, “Nicotinic acid and picolinic acid derived near-infrared fluorophores” (VisEn Medical, Inc., priority 2005, dated 2014).

A short description of this data set: Absorption and emission maxima in water. The format is physicochemical.

As for `O=C(O)c1ccc(C(=C\C=C2/Sc3ccccc3N2CCCS(=O)(=O)O)/C=C/c2sc3ccccc3[n+]2CCCS(=O)(=O)O)nc1` [Example 6], the “Abs. max (water)” value turned out to be 643 nm and the “Em. Max (water)” value is 663 nm.
